Results from US4505889A, “Protracted release microbiocidal article for aqueous systems” (Rohm and Haas Company, priority 1982, dated 1985).
Values after ≈ are worked out from the molar mass of the structure shown.

What was measured:
[1] = Release of active ingredient from solid Celite 545 composition stirred in deionized water, followed by ultraviolet spectroscopy; assay type: physicochemical; details: for Concentration in Solution at Elapsed Time: 1.28 g of 7% composition on Celite 545 in 800 ml deionized water, total release = 112 ppm; for time required to reach a saturated solution: solid composition on Celite 545 in deionized water
Protocol: To 13.28 g. of Celite®545 in each of three glass bottles was added 1 g. of the following isothiazolones in 20 ml. of methanol:
Each mixture was then stirred by hand with a spatula until it appeared to be uniformly mixed and free-flowing. Air drying, to remove methanol, affords solid product, 14.28 g., containing 7 weight % of active ingredient.
1.28 g. of each of the resulting solid microbiocidal compositions was stirred in 800 ml. of deionized water. The release of active ingredient was followed by analysis of the supernatant water by ultraviolet spectroscopy. Total release of active ingredient would give 112 ppm.

[2] = Water solubility of the isothiazolones; details: for solubility: water
[3] = Rate of release and concentration of active ingredient from sealed cellulose film bags into deionized water, followed by ultraviolet spectroscopy; assay type: physicochemical; details: 1.28 g of 7% composition on Celite 545 in sealed 3-mil cellulose bag, 800 ml deionized water, complete release = 112 ppm
Source text: There was sealed in bags of 3-mil cellulose film (3.5 in.^2 surface area) 1.28 g. of each of the three compositions prepared in Example 1 containing compounds A, B, and C, respectively. For comparison, 1.28 g. of a 7% active ingredient solid composition of Kathon®886 (a 3:1 weight ratio blend of 5-chloro-2-methyl-3-isothiazolone and 2-methyl-3-isothiazolone with 15 weight % of Mg(NO3)2 and 9 weight % of MgCl2 in aqueous solution containing 14% active ingredient available from the Rohm and Haas Company) absorbed on Celite®545 was sealed in a bag of 3-mil cellulose film (3.5 in.^2 surface area). The rate of release and concentration of active ingredient from the sealed bags into 800 ml. of deionized water was followed by ultraviolet spectroscopy. Complete release of active ingredient from each sample would give 112 ppm.

[4] = physchem; details: water

Compound	Concentration in Solution at Elapsed Time ([1]; 0.75 hr.) [ppm]	Concentration in Solution at Elapsed Time ([1]; 3.0 hr.) [ppm]	Concentration in Solution at Elapsed Time ([1]; 66.0 hr.) [ppm]	time required to reach a saturated solution [1]	solubility ([2]; Water Solubility, Example 1 table) [µg/mL]	solubility ([2]; Water Solubility, Example 3 table head) [µg/mL]	Concentration/Rate of Release ([3]; 1 day) [ppm]	Concentration/Rate of Release ([3]; 5 days) [ppm]	Concentration in Solution at Elapsed Time ([1]; 23.0 hr.) [ppm]	Water Solubility ([2]; Example 3 table head) [ppm]	solubility [2] [µg/mL]	solubility [4] [µg/mL]
O=c1c(Cl)c(Cl)sn1C1CCCCC1 [B, 4,5-dichloro-2-cyclohexyl-3-isothiazolone]	27	39	39	1 to 3 h	40 (≈ 159 µM)	42 (≈ 167 µM)	5	11				
CCCCCCCCn1sc(Cl)c(Cl)c1=O [Compound C, 4,5-dichloro-2-octyl-3-isothiazolone]	7	10	14				0.4	1.7	14	14	14 (≈ 49.6 µM)	
CCCCCCCCn1sccc1=O [A, 2-octyl-3-isothiazolone]				less than 1 hours			27	82				500 (≈ 2340 µM)
